ChEMBL document CHEMBL1123051, “In the search for new anticancer drugs. 13. Phosphonic and phosphinic analogues of ornithine” (1985)
Active and inactive are the calls of the source. The calls are words filed in the database; no cut-off is given here.

What was measured:
Mus musculus [1] = assay: Compound was tested against P388 Leukemia cells in mouse at the dose of 50 mg/kg ip, activity expressed as T/C; type: functional
[2] = molecular target: T1, Ornithine decarboxylase (Rattus norvegicus) (UniProt P09057); assay: Compound was tested for its inhibition against ornithine decarboxylase from rat liver at low concentration; NA means not active
T1 sequence (whole entry): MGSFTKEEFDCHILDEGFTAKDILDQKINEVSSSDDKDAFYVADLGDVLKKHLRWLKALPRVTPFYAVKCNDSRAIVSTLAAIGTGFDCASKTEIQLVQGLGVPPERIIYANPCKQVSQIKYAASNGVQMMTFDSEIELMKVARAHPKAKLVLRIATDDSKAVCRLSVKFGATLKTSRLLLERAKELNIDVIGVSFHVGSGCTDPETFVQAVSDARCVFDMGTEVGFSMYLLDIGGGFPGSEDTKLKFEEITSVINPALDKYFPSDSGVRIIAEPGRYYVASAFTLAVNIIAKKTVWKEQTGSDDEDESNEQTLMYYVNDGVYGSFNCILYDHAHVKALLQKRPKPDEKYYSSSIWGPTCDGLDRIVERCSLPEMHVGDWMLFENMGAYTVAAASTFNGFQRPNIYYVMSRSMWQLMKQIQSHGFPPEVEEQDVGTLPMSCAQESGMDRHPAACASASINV

Mus musculus [3] = assay: Compound was tested against P388 Leukemia cells in mouse at the dose of 150 mg/kg ip, activity expressed as T/C; type: functional

CCP(=O)(O)C(C)(N)CCCN.Cl (stereo unspecified)
T/C (Mus musculus [1]): 98
Activity [2]: inactive
T/C (Mus musculus [3]): 98

CCP(=O)(O)C(N)CCCN.Cl (stereo unspecified)
T/C (Mus musculus [1]): 100
Activity [2]: inactive
T/C (Mus musculus [3]): 100
